Reference: patent US12516049B2, “Sulfonylurea ring substituted monocyclic β-lactam antibiotics” (priority 2019, dated 2026)
Converted amounts (≈) assume the structure as drawn.

Legend:
E. coli ATCC-25922 = assay: Mouse thigh muscle model, E. coli ATCC-25922; format: in vivo; settings: immunosuppressed female CD-1 mice; E. coli ATCC-25922 1.36E+06 CFU/mouse; 100 mg/kg subcutaneously at 2, 4, 6, 8 h after infection; end point 10 h
Protocol: 9 female CD-1 mice were divided into 3 cages, 3 mice per cage, and were injected intraperitoneally with immunosuppressant cyclophosphamide (150 mg/kg). 24 hours later, 3 cages of mice were injected intraperitoneally again with immunosuppressant cyclophosphamide (100 mg/kg). The strain E. coli ATCC-25922 was recovered on an MHA plate. The recovered colonies were picked and dissolved in saline to prepare E. coli ATCC-25922 bacterial solution with a concentration of 1.36E+07 CFU/mL for use in mouse thigh muscle infection. The amount of bacterial solution injected into the thigh muscle of the experimental mice was 100 μL/mouse, that is, the inoculation amount was 1.36E+06 CFU/mouse. 2 h after infection, the thigh muscle tissue of the mice in control group was taken and placed in 10 mL saline, homogenized, and dotted on a plate with gradient dilution. The specific administration of mice was as follows: (1) 2 h after infection: At the end point of 2 h infection, the thigh muscle tissue of the mice in the first cage was taken and placed in 10 mL saline, homogenized, and dotted on a plate with gradient dilution, two duplications for each mouse. The amount of bacteria loaded in the thigh muscle tissue of the mouse was counted. […] The amount of bacteria loaded in the thigh muscle tissue of the mouse was counted, and the experimental results were sorted and shown in Table 4.

[1] = system: Klebsiella pneumonia ATCC BAA-205 (TEM-1/SHV-1/SHV-12); assay: MIC, micro-liquid dilution (CLSI); format: cell-based; settings: Klebsiella pneumoniae, ATCCBAA205; K. pneumonia ATCC BAA-205, Class A (TEM-1/SHV-1/SHV-12); 20-24 h, 37° C.
Protocol: (§1) Three strains of Klebsiella pneumonia, ATCC BAA-205 (TEM-1/SHV-1/SHV-12), ATCC BAA-1705 (KPC-2), ATCC BAA-2470 (NDM-1), Enterobacter cloacae ATCC BAA-1143 (AmpC), two strains of Escherichia coli ATCC BAA-2523 (OXA-48), ATCC 25922 were used to determine the minimum inhibitory concentration (MIC) of each of the compounds by micro-liquid dilution method according to the Institute of Clinical and Laboratory Standard (CLSI) requirements. […]. The plate was placed upside down at 37° C. and the MIC value was read after 20-24 h of incubation, and the lowest drug concentration that inhibited the growth of bacteria was set as MIC. Colony-Forming Units (CFU) refer to the total number of bacterial colonies per unit volume.

[2] = system: Escherichia coli ATCC 25922; assay: MIC, micro-liquid dilution (CLSI); format: cell-based; settings: ATCC25922, E. coli ATCC 25922, 20-24 h, 37° C.
Protocol: as §1

[3] = system: Klebsiella pneumonia ATCC BAA-1705 (KPC-2); assay: MIC, micro-liquid dilution (CLSI); format: cell-based; settings: Klebsiella pneumoniae, ATCCBAA1705; K. pneumonia ATCC BAA-1705, Class A (KPC-2); 20-24 h, 37° C.
Protocol: as §1

[4] = system: Klebsiella pneumonia ATCC BAA-2470 (NDM-1); assay: MIC, micro-liquid dilution (CLSI); format: cell-based; settings: Klebsiella pneumoniae, ATCCBAA2470; K. pneumonia ATCC BAA-2470, Class B (NDM-1); 20-24 h, 37° C.
Protocol: as §1

[5] = system: Escherichia coli ATCC BAA-2523 (OXA-48); assay: MIC, micro-liquid dilution (CLSI); format: cell-based; settings: ATCCBAA2523, E. coli ATCC BAA-2523, Class D (OXA-48), 20-24 h, 37° C., read-out: MIC
Protocol: as §1

[6] = system: Enterobacter cloacae ATCC BAA-1143 (AmpC); assay: MIC, micro-liquid dilution (CLSI); format: cell-based; settings: ATCCBAA1143, E. cloacae ATCC BAA-1143, Class C (AmpC), 20-24 h, 37° C.
Protocol: as §1

MIC [1]: 0.5 µg/mL (≈ 0.903 µM)
MIC [2]: 1 µg/mL (≈ 1.81 µM)
MIC [3]: 0.5 µg/mL (≈ 0.903 µM)
MIC [4]: 0.5 µg/mL (≈ 0.903 µM)
MIC [5]: 0.5 µg/mL (≈ 0.903 µM)
MIC [6]: 1 µg/mL (≈ 1.81 µM)
Structure (SMILES): Nc1nc(/C(=N/OC2(C(=O)O)CC2)C(=O)N[C@@H]2C(=O)N(S(=O)(=O)O)[C@@H]2CN2CCNS2(=O)=O)cs1 [Compound 1]
Average CFU of the mouse (amount of bacteria loaded in thigh muscle tissue) (E. coli ATCC-25922): 2.25E+05 CFU
